# Data published in PubChem BioAssay (NCI).
#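 Cells were grown in 96-well plates and exposed to each compound for 48 hours at five concentrations; endpoints were interpolated linearly between bracketing concentrations, or set to the highest concentration if not reached. TGI: concentration producing complete growth inhibition.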
# Tests used:
# Experiment in all cases: inhibition of tumour cell growth, NCI panel, 48 h
# [1] = tested on: ACHN renal
# [2] = tested on: TK-10 renal
# [3] = tested on: UACC-62 melanoma
# [4] = tested on: EKVX NSCLC
# [5] = tested on: SNB-19 CNS
# [6] = tested on: RPMI-8226 leukemia
# [7] = tested on: UO-31 renal
# [8] = tested on: U251 CNS
# [9] = tested on: BT-549 breast
# [10] = tested on: HCT-15 colon
# [11] = tested on: UACC-257 melanoma
# [12] = tested on: A498 renal
# [13] = tested on: SK-MEL-5 melanoma
# [14] = tested on: PC-3 prostate
# [15] = tested on: NCI-H226 lung
# [16] = tested on: CAKI-1 renal
# [17] = tested on: SN12C renal
# [18] = tested on: COLO 205 colon
# [19] = tested on: K-562 leukemia
# [20] = tested on: SW-620 colon
SMILES,TGI [1] [µM],TGI [2] [µM],TGI [3] [µM],TGI [4] [µM],TGI [5] [µM],TGI [6] [µM],TGI [7] [µM],TGI [8] [µM],TGI [9] [µM],TGI [10] [µM],TGI [11] [µM],TGI [12] [µM],TGI [13] [µM],TGI [14] [µM],TGI [15] [µM],TGI [16] [µM],TGI [17] [µM],TGI [18] [µM],TGI [19] [µM],TGI [20] [µM]
O=C(/C=C(\O)c1ccc(Cl)cc1)C(=O)N=Nc1c(O)[nH]c2ccc(Br)cc12,> 100,> 100,> 100,> 100,> 100,92.3,> 100,> 100,> 100,> 100,> 100,74.3,> 100,> 100,> 100,> 100,> 100,> 100,45.8,> 100
COC(OC)C1OC(CO)C(n2cc(C)c(=O)[nH]c2=O)C1O (stereo not given),> 100,> 100,> 100,> 100,> 100,> 100,> 100,> 100,> 100,> 100,> 100,> 100,> 100,> 100,> 100,> 100,> 100,> 100,> 100,> 100
Cc1nc(C)c(C(=O)NNC(=O)Cc2ccccc2)cc1C(=O)NNC(=O)Cc1ccccc1,> 100,> 100,> 100,> 100,> 100,> 100,> 100,> 100,> 100,> 100,> 100,> 100,> 100,> 100,> 100,> 100,> 100,> 100,> 100,> 100
